{"source": "paper PMC8524670", "about": "(Pharmacology Research & Perspectives, 2021)", "key": {"human BCRP": {"target": "T1, human BCRP (Homo sapiens, UniProt Q9UNQ0)", "T1 sequence (Q9UNQ0 1-655)": "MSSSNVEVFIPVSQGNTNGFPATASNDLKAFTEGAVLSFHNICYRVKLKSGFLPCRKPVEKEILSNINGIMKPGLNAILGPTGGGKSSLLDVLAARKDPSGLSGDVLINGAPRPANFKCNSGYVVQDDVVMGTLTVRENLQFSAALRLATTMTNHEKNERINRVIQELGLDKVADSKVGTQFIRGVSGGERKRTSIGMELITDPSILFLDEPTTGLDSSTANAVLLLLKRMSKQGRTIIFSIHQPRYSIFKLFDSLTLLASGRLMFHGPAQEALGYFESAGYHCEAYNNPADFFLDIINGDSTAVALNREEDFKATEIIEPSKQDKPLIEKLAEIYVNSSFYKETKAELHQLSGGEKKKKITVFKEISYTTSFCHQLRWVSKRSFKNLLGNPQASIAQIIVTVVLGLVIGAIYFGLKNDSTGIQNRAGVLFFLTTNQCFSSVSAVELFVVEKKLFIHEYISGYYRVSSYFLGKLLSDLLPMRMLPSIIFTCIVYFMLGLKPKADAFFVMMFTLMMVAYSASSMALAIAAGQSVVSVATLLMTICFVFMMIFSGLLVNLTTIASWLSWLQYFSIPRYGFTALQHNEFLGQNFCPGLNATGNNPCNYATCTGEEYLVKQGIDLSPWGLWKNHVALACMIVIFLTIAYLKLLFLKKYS", "assay": "BCRP transportation in inside-out vesicles", "format": "in vitro ADME", "settings": "uptake ratio ≥2-fold indicates substrate"}, "CYP2C19": {"target": "CYP2C19 (Homo sapiens, UniProt P33261)", "sequence (P33261 whole entry)": "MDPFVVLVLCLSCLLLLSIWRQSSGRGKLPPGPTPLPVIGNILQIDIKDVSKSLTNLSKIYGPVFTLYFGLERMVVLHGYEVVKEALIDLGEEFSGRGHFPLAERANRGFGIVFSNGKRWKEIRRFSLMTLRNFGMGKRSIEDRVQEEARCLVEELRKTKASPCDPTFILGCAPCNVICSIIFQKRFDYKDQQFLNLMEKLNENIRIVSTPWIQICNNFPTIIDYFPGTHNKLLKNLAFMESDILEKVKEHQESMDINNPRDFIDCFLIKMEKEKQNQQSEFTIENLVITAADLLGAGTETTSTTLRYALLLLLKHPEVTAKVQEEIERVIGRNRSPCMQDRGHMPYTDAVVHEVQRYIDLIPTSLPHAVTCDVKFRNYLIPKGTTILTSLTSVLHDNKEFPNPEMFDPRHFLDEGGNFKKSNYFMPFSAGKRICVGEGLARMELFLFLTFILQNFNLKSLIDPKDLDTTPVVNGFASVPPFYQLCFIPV", "assay": "Time-dependent CYP inhibition in HLMs", "settings": "10 µM zanubrutinib, 30 min pre-incubation with HLMs and NADPH"}, "P-gp": {"target": "P-gp (Homo sapiens, UniProt P08183)", "sequence (P08183 whole entry)": "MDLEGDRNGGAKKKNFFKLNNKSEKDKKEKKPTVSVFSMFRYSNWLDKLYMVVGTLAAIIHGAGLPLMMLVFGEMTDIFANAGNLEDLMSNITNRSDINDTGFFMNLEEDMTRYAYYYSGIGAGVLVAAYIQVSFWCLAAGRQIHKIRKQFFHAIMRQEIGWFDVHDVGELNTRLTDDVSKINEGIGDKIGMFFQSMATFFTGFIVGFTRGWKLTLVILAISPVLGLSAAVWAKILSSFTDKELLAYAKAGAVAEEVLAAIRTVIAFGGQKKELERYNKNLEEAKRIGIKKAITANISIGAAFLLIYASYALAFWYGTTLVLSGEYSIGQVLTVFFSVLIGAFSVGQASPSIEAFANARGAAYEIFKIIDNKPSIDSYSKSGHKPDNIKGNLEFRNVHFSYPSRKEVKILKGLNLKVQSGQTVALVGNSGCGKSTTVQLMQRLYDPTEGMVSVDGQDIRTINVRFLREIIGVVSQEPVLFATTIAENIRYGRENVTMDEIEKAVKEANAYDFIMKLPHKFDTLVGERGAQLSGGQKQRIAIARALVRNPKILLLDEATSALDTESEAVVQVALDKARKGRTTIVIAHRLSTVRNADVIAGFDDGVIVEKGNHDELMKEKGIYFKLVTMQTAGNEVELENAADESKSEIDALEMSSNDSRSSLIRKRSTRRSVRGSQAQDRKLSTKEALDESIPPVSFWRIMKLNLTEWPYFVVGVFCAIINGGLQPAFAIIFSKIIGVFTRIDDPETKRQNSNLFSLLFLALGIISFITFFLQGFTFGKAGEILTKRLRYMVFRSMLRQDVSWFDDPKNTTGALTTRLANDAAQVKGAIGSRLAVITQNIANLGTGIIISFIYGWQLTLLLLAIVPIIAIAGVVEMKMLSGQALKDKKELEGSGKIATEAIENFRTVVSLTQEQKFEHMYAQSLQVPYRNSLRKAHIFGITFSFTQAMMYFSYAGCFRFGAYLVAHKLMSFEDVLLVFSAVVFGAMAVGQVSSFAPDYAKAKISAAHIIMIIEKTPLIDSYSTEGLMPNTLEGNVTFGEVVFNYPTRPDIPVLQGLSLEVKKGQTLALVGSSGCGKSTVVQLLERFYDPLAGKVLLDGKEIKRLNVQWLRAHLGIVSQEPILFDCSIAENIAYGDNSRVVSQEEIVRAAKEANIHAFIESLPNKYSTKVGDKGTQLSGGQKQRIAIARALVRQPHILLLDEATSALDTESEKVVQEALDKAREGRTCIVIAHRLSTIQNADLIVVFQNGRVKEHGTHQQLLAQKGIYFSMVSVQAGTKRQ", "settings": "coadministration of zanubrutinib; cited from earlier work"}, "CYP2D6": {"target": "CYP2D6 (Homo sapiens, UniProt P10635)", "sequence (P10635 whole entry)": "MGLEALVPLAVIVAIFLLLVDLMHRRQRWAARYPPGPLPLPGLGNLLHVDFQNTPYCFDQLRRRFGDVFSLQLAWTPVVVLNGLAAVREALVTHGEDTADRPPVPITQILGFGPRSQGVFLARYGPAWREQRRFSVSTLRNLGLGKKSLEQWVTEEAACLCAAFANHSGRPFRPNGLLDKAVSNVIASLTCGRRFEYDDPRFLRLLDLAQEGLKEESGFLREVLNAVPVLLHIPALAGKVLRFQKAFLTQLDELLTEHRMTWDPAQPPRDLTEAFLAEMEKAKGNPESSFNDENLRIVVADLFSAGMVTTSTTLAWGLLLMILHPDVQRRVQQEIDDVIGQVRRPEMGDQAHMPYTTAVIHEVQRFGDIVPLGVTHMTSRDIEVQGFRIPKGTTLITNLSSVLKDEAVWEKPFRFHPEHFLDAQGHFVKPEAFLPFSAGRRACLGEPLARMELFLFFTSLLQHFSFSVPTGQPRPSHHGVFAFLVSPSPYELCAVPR", "assay": "Time-dependent CYP inhibition in HLMs", "settings": "10 µM zanubrutinib, 30 min pre-incubation with HLMs and NADPH"}, "CYP2C9": {"target": "CYP2C9 (Homo sapiens, UniProt P11712)", "sequence (P11712 whole entry)": "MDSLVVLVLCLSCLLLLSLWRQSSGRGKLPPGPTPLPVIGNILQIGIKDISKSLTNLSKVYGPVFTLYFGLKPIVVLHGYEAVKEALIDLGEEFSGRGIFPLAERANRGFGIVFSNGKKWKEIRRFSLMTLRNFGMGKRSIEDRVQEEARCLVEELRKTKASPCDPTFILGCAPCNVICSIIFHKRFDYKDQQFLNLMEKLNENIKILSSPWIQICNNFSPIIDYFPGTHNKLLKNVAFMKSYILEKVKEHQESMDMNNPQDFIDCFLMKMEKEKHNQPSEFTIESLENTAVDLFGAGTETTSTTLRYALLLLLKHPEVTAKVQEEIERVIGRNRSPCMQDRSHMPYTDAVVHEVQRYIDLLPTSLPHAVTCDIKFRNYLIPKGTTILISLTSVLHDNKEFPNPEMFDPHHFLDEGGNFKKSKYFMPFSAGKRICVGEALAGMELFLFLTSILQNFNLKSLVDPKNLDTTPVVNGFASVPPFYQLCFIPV", "assay": "CYP reversible inhibition in HLMs", "settings": "diclofenac"}, "OAT1": {"target": "T2, OAT1 (Homo sapiens, UniProt Q4U2R8)", "T2 sequence (Q4U2R8 1-563)": "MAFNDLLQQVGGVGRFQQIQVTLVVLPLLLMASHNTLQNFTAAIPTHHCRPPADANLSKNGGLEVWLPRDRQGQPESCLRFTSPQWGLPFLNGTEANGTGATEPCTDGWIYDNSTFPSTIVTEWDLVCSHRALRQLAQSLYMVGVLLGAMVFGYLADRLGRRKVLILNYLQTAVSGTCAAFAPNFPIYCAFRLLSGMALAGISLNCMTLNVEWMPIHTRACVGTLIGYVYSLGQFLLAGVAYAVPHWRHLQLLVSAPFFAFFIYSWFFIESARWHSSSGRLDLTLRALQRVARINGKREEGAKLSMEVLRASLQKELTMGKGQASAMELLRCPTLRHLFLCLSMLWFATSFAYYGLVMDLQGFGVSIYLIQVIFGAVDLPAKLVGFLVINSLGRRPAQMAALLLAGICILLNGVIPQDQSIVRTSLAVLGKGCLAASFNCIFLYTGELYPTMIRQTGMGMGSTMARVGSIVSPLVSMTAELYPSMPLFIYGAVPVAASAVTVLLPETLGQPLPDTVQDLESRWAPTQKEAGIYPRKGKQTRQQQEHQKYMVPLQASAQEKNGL", "assay": "SLC inhibition assay in HEK293 cells"}, "CYP1A2": {"target": "T3, CYP1A2 (Homo sapiens, UniProt P05177)", "T3 sequence (P05177 1-516)": "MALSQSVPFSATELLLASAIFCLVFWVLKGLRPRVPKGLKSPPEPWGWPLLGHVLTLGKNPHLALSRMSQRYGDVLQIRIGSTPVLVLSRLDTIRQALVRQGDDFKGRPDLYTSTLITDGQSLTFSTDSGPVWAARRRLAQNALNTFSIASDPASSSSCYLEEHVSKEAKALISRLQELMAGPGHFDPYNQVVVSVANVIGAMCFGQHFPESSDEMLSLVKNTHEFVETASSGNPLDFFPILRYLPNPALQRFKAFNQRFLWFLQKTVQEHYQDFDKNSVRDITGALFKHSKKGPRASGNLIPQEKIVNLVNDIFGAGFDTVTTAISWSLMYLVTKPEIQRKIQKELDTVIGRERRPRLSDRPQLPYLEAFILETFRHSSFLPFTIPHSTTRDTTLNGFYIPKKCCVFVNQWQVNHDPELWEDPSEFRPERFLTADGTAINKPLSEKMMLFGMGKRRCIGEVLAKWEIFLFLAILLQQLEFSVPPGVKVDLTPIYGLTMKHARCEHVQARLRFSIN", "assay": "biochemical", "format": "in vitro ADME"}}}
{"smiles": "C=CC(=O)N1CCC([C@@H]2CCNc3c(C(N)=O)c(-c4ccc(Oc5ccccc5)cc4)nn32)CC1", "note": "[zanubrutinib]", "values": [{"measurement": "BCRP substrate status", "setting": "human BCRP", "result": "unlikely to be a substrate"}, {"measurement": "Percent loss of enzymatic activity", "setting": "CYP2C19", "result": "−4.58", "unit": "%"}, {"measurement": "Increase of C max of P-gp probe digoxin", "setting": "P-gp", "result": 34, "unit": "%"}, {"measurement": "R 3", "setting": "CYP3A4; DDI basic model value for induction", "result": 0.23}, {"measurement": "Cg", "setting": "CYP3A4; static model term, induction in gut", "result": 14.6}, {"measurement": "Ch", "setting": "CYP3A4; static model term, induction in liver", "result": 1.77}, {"measurement": "Percent loss of enzymatic activity", "setting": "CYP2D6", "result": "−14.6", "unit": "%"}, {"measurement": "R1", "setting": "CYP2C9; DDI basic model, hepatic", "result": 1.04}, {"measurement": "Ah", "setting": "CYP2C9; static model term, liver inhibition", "result": 0.96}, {"measurement": "Inhibition of uptake activity", "setting": "OAT1; 0.05–5 µM", "result": "not inhibited"}, {"measurement": "activity at 0.05 µM", "setting": "OAT1; human", "result": "103 ± 5.6", "unit": "%"}, {"measurement": "activity at 0.2 µM", "setting": "OAT1; human", "result": "106 ± 7.8", "unit": "%"}, {"measurement": "activity at 1 µM", "setting": "OAT1; human", "result": "109 ± 3.9", "unit": "%"}, {"measurement": "activity at 5 µM", "setting": "OAT1; human", "result": "109 ± 3.3", "unit": "%"}, {"measurement": "IC50", "setting": "CYP1A2", "result": 121, "unit": "µM"}, {"measurement": "Ki", "setting": "CYP1A2; Ki, phenacetin, Ki = IC50/2", "result": 60.5, "unit": "µM"}, {"measurement": "Ki", "setting": "CYP1A2; Kiu, phenacetin, unbound Ki", "result": 47.8, "unit": "µM"}, {"measurement": "R1", "setting": "CYP1A2; phenacetin, DDI basic model, hepatic", "result": 1.00}, {"measurement": "Ah", "setting": "CYP1A2; phenacetin, static model term, liver inhibition", "result": 1.00}]}
